Source: patent publication US6379670B1, “Methods for treatment of multiple sclerosis using peptide analogs of human myelin basic protein” (Neurocrine Biosciences, Inc., priority 1994, dated 2002)
Non-standard residues stand in square brackets, D forms with d. No end group written: not given here.

Key:
[1] = tested on: T cell lines LW 80, 88, 90 and 93; test: Specificity and phenotype of APL-reactive T cell lines from patient; assay type: cell-based, human; details: 25 μg/ml antigen
Protocol: Four cell cultures from one patient ([…], 32% frequency) showing a response (> three-fold over background) were expanded into cell lines (LW 80, 88, 90 and 93) by incubation in IL-2 for 11-14 days (1-2 passages). Once sufficient cells had grown up, they were cultured with either medium alone or 25 μg/ml of either whole MBP, MBP (83-99) or APL NBI-5788. After 24 hours, the supernatants were collected and the level of cytokines determined (see FIGS. 22 to 26). The remaining cultures were pulsed with radiolabeled thymidine and the extent of incorporation determined.

[2] = tested on: T cell cultures from multiple sclerosis patients; test: Th2/Th1 (IL-13/IFN-γ) activity of T cell cultures of MS patients by dose group; assay type: in vivo, human; details: 1, 5 and 20 mg dose groups, weeks 3, 5 and 8; most prominently in the 5 and 20 mg dose groups, FIG. 34
Protocol: T cell analyses (cytokine production) were performed at Week 1 (pre-dosing), at Week 3 (=just prior to third dose), at Week 5 (1 week after last dose) and Week 8 (4 weeks after last dose). Tritiated thymidine uptake was measured using a beta scintillation counter (Topcount, Packard).
Interferon-γ(marker for Th1 activity) and IL-13 (marker for Th2 activity) were measured by Enzyme-Linked Immuno-Assay (ELISA) in T cell culture supernatants collected prior to [^3H]-thymidine incorporation (proliferation assay).
To measure IFN-γ produced by T cell cultures, a sandwich ELISA method was employed. Microtiter plates were coated with 2 μg/ml capture antibody (Pharmingen, San Diego) in 0.1 M NaHCO3 (pH=8.2) overnight at 4° C. Plates were then incubated with blocking buffer (1% solution [w/v] of casein [Sigma] in water, pH=8.2) for at least 30 minutes at room temperature to block non-specific binding sites. […] The reaction was stopped by the addition of 0.2N H2SO4 and absorbance at 450 nm was determined using a microplate spectrophotometer (Molecular Dynamics, Sunnyvale, Calif., USA). […]
To measure IL-13 produced by T cell cultures, a sandwich ELISA method was employed. […] The reaction was stopped by the addition of 0.2N H2SO4 and absorbance at 450 nm was determined using a microplate spectrophotometer (Molecular Dynamics, Sunnyvale, Calif., USA). […]

MBP(83-99) (83E>a, 84N>K, 89F>L, and 91K>A) ([dA]KPVVHLFANIVTPRTP) [NBI-5788]
thymidine incorporation of T cell line ([1]; Line 80 of patient): 25,696 ± 408 cpm | thymidine incorporation of T cell line ([1]; Line 88 of patient): 11,603 ± 424 cpm | thymidine incorporation of T cell line ([1]; Line 90 of patient): 25,317 ± 8,221 cpm | thymidine incorporation of T cell line ([1]; Line 93 of patient): 16,197 ± 2,095 cpm | ratio of overall Th2-type to overall Th1-type activities (IL-13/IFN-γ) [2]: clear shift to an overall Th2 activity
